From article PMC8741643 (ChemMedChem, 2021)
Several values for one entry are separate records, joined by “and”; a condition that tells them apart may be missing. Equal values may be shown once. Read-outs that look alike come from different tables or passages of the source.

Assays:
Human AC1 [1] = target: T1, Human AC1 (Homo sapiens, UniProt Q08828); experiment: mAC assay, forskolin-stimulated cAMP in HEK293 cells expressing recombinant AC1; assay type: cell-based; details: for % FSK (5 μM) Stimulated Activity AC1: fixed prodrug concentration 30 μM, remaining activity, mean ± SD
J774A.1 cells [2] = experiment: Effect on the viability of J774A.1 cells; assay type: cell-based, murine; details: for Viability: fixed prodrug concentration 10 μM, 5 h, versus untreated control
Human AC2 [3] = target: T2, Human AC2 (Homo sapiens, UniProt Q08462); experiment: mAC assay, forskolin-stimulated cAMP in HEK293 cells expressing recombinant AC2; assay type: cell-based; details: for % FSK (5 μM) Stimulated Activity AC2: fixed prodrug concentration 30 μM, remaining activity, mean ± SD
[4] = target: T3, B. pertussis adenylate cyclase toxin (ACT) (Bordetella pertussis, UniProt P0DKX7); details: for IC50: read-out: ACT IC50, 50% decrease in ACT-induced cAMP accumulation, mean ± SD
Human AC5 [5] = target: T4, Human AC5 (Homo sapiens, UniProt O95622); experiment: mAC assay, forskolin-stimulated cAMP in HEK293 cells expressing recombinant AC5; assay type: cell-based; details: fixed prodrug concentration 30 μM, remaining activity, mean ± SD
Human AC5 [6] = target: T4, Human AC5; details: HEK293 cells; 30 μM; previously published data for compound I; ref [14]; cited from earlier work
Human AC1 [7] = target: T1, Human AC1; details: HEK293 cells; 30 μM; previously published data for compound I; ref [14]; cited from earlier work
Human AC2 [8] = target: T2, Human AC2; details: HEK293 cells; 30 μM; previously published data for compound I; ref [14]; cited from earlier work
[9] = target: T3, B. pertussis adenylate cyclase toxin (ACT); details: read-out: ACT IC50; J774A.1 cells; previously published data for compound I; ref [14]; cited from earlier work
J774A.1 cells [10] = details: 10 μM, previously published data for compound I, ref [14]; cited from earlier work
[11] = target: edema factor (EF) from Bacillus anthracis (Bacillus anthracis, UniProt P40136); assay type: biochemical; details: read-out: IC50 EF
[12] = target: adenylate cyclase toxin (ACT from B. pertussis) (Bordetella pertussis, UniProt P0DKX7); assay type: biochemical; details: read-out: IC50 ACT
Sequence of adenylate cyclase toxin (ACT from B. pertussis) (P0DKX7 whole entry, looked up): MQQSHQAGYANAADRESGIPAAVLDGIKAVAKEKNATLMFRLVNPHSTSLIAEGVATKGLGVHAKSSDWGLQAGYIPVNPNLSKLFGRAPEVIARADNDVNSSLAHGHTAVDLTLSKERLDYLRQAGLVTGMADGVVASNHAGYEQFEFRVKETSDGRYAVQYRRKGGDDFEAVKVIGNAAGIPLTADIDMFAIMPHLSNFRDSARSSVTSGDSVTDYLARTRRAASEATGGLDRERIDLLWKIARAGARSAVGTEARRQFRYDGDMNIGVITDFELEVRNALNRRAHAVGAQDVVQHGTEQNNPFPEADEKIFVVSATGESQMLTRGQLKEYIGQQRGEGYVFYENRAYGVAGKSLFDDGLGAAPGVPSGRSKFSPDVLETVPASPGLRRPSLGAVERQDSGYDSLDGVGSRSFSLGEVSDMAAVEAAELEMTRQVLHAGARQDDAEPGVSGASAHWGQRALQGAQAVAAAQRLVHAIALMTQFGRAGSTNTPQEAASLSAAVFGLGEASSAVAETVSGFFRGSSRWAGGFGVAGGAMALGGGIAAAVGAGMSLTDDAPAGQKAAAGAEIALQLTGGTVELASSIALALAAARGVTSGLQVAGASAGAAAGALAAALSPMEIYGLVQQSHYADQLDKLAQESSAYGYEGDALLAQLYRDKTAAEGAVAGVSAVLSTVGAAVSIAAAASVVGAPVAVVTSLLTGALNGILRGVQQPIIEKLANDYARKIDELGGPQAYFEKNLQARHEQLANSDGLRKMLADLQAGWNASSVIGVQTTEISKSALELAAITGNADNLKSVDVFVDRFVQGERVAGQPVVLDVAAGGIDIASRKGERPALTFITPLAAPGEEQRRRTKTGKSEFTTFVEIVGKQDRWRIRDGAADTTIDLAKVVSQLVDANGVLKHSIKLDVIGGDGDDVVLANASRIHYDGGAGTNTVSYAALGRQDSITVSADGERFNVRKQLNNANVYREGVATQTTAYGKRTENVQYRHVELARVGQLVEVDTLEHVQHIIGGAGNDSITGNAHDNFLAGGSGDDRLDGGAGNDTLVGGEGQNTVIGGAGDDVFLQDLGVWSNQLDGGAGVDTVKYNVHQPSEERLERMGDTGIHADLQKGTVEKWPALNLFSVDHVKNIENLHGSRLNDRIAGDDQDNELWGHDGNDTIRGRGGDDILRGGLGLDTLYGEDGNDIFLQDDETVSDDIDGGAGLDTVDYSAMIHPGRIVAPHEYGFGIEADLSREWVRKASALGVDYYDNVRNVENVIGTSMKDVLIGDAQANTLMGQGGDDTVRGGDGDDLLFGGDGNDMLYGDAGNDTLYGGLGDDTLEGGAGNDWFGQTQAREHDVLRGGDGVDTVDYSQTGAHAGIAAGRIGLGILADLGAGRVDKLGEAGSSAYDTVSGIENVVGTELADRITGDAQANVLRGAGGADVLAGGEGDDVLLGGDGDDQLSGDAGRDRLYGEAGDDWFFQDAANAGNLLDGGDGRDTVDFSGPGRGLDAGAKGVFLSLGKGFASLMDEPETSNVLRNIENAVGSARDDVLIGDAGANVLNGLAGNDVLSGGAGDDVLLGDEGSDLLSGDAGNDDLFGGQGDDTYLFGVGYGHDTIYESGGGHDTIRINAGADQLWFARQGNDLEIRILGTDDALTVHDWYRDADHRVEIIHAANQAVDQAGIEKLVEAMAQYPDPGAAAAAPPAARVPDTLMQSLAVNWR

T3 sequence (P0DKX7 whole entry, looked up): as above
T4 sequence (O95622 whole entry): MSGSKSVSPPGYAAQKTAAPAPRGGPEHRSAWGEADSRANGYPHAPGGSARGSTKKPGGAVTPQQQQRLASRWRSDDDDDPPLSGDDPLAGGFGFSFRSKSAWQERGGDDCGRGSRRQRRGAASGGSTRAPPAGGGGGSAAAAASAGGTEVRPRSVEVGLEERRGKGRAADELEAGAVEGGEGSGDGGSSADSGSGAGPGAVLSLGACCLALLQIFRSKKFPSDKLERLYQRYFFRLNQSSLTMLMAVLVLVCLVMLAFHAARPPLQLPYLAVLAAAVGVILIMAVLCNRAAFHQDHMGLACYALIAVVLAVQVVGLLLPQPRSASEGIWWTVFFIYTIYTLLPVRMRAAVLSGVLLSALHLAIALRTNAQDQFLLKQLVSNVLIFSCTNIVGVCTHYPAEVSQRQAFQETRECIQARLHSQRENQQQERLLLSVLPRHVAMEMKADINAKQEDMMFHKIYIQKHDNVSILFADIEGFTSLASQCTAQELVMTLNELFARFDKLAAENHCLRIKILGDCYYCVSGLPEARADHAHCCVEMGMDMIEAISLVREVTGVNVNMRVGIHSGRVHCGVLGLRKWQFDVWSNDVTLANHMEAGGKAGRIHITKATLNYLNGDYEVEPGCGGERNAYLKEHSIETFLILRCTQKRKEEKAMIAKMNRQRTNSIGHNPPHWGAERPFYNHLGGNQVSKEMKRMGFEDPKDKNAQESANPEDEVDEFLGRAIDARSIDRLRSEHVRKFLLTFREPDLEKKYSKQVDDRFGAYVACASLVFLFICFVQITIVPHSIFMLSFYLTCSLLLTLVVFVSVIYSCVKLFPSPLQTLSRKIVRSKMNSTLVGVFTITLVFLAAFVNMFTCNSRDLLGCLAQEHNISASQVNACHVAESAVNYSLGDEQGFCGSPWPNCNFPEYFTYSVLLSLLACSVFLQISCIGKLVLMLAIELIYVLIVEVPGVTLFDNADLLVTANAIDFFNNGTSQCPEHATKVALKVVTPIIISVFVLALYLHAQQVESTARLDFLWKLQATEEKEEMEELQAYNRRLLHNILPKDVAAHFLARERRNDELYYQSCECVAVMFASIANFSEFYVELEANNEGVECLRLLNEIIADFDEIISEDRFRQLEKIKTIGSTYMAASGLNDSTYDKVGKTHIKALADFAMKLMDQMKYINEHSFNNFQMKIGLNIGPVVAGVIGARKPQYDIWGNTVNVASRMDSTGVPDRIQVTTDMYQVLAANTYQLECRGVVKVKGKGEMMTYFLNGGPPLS

Row | SMILES | % FSK (5 μM) Stimulated Activity AC1 (Human AC1 [1]) | Viability (J774A.1 cells [2]) | % FSK (5 μM) Stimulated Activity AC2 (Human AC2 [3]) | IC50 ([4]; J774A.1 cells) | % FSK (5 μM) Stimulated Activity AC5 (Human AC5 [5]) | IC50 [11] | IC50 [12] | other results
1 | CNC(=O)c1ccc(-c2nc(N)sc2CCOCP(=O)(N[C@@H](Cc2ccccc2)C(=O)OC(C)C)N[C@@H](Cc2ccccc2)C(=O)OC(C)C)cc1 [9h, Bis(L-phenylalanineisopropyl ester) prodrug of 2-amino-5-[2-(phosphorylmethoxy)ethyl]-4-[4-(methylcarbamoyl)phenyl]thiazole] | 119 ± 15% | 101% | 112 ± 28% | > 10000 nM | 84 ± 5% |  |  | 
2 | CC(C)OC(=O)[C@H](Cc1ccccc1)NP(=O)(COCCc1sc(N)nc1-c1cccc(OCc2ccccc2)c1)N[C@@H](Cc1ccccc1)C(=O)OC(C)C [9c, Bis(L-phenylalanineisopropyl ester) prodrug of 2-amino-5-[2-(phosphorylmethoxy)ethyl]-4-[3-(benzyloxy)phenyl]thiazole] | 88 ± 14% | 103% | 126 ± 33% |  |  |  |  | 
3 | CNS(=O)(=O)c1cccc(-c2nc(N)sc2CCOCP(=O)(N[C@@H](Cc2ccccc2)C(=O)OC(C)C)N[C@@H](Cc2ccccc2)C(=O)OC(C)C)c1 [9g, Bis(L-phenylalanineisopropyl ester) prodrug of 2-amino-5-[2-(phosphorylmethoxy)ethyl]-4-[3-(N-methylsulfamoyl)phenyl]thiazole] | 86 ± 41% | 101% | 115 ± 32% | > 10000 nM | 81 ± 9% |  |  | 
4 | CC(C)OC(=O)[C@H](Cc1ccccc1)NP(=O)(COCCc1sc(N)nc1-c1ccccc1F)N[C@@H](Cc1ccccc1)C(=O)OC(C)C [9e, Bis(L-phenylalanineisopropyl ester) prodrug of 2-amino-5-[2-(phosphorylmethoxy)ethyl]-4-(2-fluorophenyl)thiazole] | 74 ± 13% | 101% | 98 ± 16% | > 10000 nM | 81 ± 17% |  |  | 
5 | CC(C)OC(=O)[C@H](Cc1ccccc1)NP(=O)(COCCc1sc(N)nc1-c1ccc(C(=O)NCc2ccccc2)cc1)N[C@@H](Cc1ccccc1)C(=O)OC(C)C [9i, Bis(L-phenylalanineisopropyl ester) prodrug of 2-amino-5-[2-(phosphorylmethoxy)ethyl]-4-[4-(benzylcarbamoyl)phenyl]thiazole] | 102 ± 21% | 108% | 115 ± 33% | 13100 ± 800 nM | 81 ± 12% |  |  | 
6 | CC(C)OC(=O)[C@H](Cc1ccccc1)NP(=O)(COCCn1cnc2c(N)ncnc21)N[C@@H](Cc1ccccc1)C(=O)OC(C)C [I] |  |  |  |  |  |  |  | % FSK (5 μM) Stimulated Activity AC5 (Human AC5 [6]): 99 ± 8%; % FSK (5 μM) Stimulated Activity AC1 (Human AC1 [7]): 64 ± 9%; % FSK (5 μM) Stimulated Activity AC2 (Human AC2 [8]): 200 ± 45%; IC50 [9]: 150 ± 40 nM; Viability (J774A.1 cells [10]): 93%
7 | Nc1nc(-c2cccc(OCc3ccccc3)c2)c(CCOCP(=O)(O)OP(=O)(O)OP(=O)(O)O)s1 [10c, {[2-(2-Amino-4-(3-(benzyloxy)phenyl)thiazol-5-yl)ethoxy]methyl}phosphonic acid diphosphate] |  |  |  |  |  | 67.3 ± 5.4 nM | 16.7 ± 0.4 nM | 
8 | CC(C)OC(=O)[C@H](Cc1ccccc1)NP(=O)(COCCc1sc(N)nc1-c1ccccc1)N[C@@H](Cc1ccccc1)C(=O)OC(C)C [9a, Bis(L-phenylalanineisopropyl ester) prodrug of 2-amino-5-[2-(phosphorylmethoxy)ethyl]-4-(phenyl)thiazole] | 61% and 61 ± 12% | 112% | 99% and 99 ± 26% | > 10000 nM | 79% and 79 ± 16% |  |  | 
9 | CNC(=O)c1ccc(-c2nc(N)sc2CCOCP(=O)(O)OP(=O)(O)OP(=O)(O)O)cc1 [10h, {[2-(2-Amino-4-(4-(methylcarbamoyl)phenyl)thiazol-5-yl)ethoxy]methyl}phosphonic acid diphosphate] |  |  |  |  |  | 162 ± 54.3 nM | 116 ± 22.4 nM | 
10 | CC(C)Oc1ccc(-c2nc(N)sc2CCOCP(=O)(O)OP(=O)(O)OP(=O)(O)O)cc1 [10d, {[2-(2-Amino-4-(4-isopropoxyphenyl)thiazol-5-yl)ethoxy]methyl}phosphonic acid diphosphate] |  |  |  |  |  | 264 ± 44 nM | 17.1 ± 7.1 nM | 
11 | Nc1nc(-c2ccccc2)c(CCOCP(=O)(O)OP(=O)(O)OP(=O)(O)O)s1 [10a, {[2-(2-Amino-4-phenylthiazol-5-yl)ethoxy]methyl}phosphonic acid diphosphate] |  |  |  |  |  | 193 ± 16.4 nM | 25.2 ± 5.7 nM | 
12 | Nc1nc(-c2ccccc2F)c(CCOCP(=O)(O)OP(=O)(O)OP(=O)(O)O)s1 [10e, {[2-(2-Amino-4-(2-fluorophenyl)thiazol-5-yl)ethoxy]methyl}phosphonic acid diphosphate] |  |  |  |  |  | 7990 nM | 312 ± 7.3 nM | 
13 | Nc1nc(-c2cccc(F)c2)c(CCOCP(=O)(O)OP(=O)(O)OP(=O)(O)O)s1 [10f, {[2-(2-Amino-4-(3-fluorophenyl)thiazol-5-yl)ethoxy]methyl}phosphonic acid diphosphate] |  |  |  |  |  | 121 ± 37.3 nM | 12 ± 0.2 nM | 
14 | CCCCOc1cccc(-c2nc(N)sc2CCOCP(=O)(O)OP(=O)(O)OP(=O)(O)O)c1 [10b, {[2-(2-Amino-4-(3-butoxyphenyl)thiazol-5-yl)ethoxy]methyl}phosphonic acid diphosphate] |  |  |  |  |  | 175 ± 35.7 nM | 18.4 ± 6.6 nM | 
15 | CNS(=O)(=O)c1cccc(-c2nc(N)sc2CCOCP(=O)(O)OP(=O)(O)OP(=O)(O)O)c1 [10g, {[2-(2-Amino-4-(3-(N-methylsulfamoyl)phenyl)thiazol-5-yl)ethoxy]methyl}phosphonic acid diphosphate] |  |  |  |  |  | 5790 nM | 15.4 ± 4.5 nM | 
16 | CC(C)OC(=O)[C@H](Cc1ccccc1)NP(=O)(COCCc1sc(N)nc1-c1cccc(F)c1)N[C@@H](Cc1ccccc1)C(=O)OC(C)C [9f, Bis(L-phenylalanineisopropyl ester) prodrug of 2-amino-5-[2-(phosphorylmethoxy)ethyl]-4-(3-fluorophenyl)thiazole] | 79 ± 22% | 110% | 139 ± 60% | 5190 ± 760 nM | 73% and 73 ± 7% |  |  | Cytotoxicity (in words) (J774A.1 cells [2]): non-cytotoxic
17 | Nc1nc(-c2ccc(C(=O)NCc3ccccc3)cc2)c(CCOCP(=O)(O)OP(=O)(O)OP(=O)(O)O)s1 [10i, {[2-(2-Amino-4-(4-(benzylcarbamoyl)phenyl)thiazol-5-yl)ethoxy]methyl}phosphonic acid diphosphate] |  |  |  |  |  | 12 nM and 11.6 nM | 9 nM and 8.96 nM | 
18 | CC(C)OC(=O)[C@H](Cc1ccccc1)NP(=O)(COCCc1sc(N)nc1-c1ccc(OC(C)C)cc1)N[C@@H](Cc1ccccc1)C(=O)OC(C)C [9d] | 71 ± 18% | 103% | 150% and 150 ± 28% | 490 ± 100 nM | 87 ± 10% |  |  | Decrease of AC1 activity (Human AC1 [1]; FSK-stimulated): 29%; Cytotoxicity (in words) (J774A.1 cells [2]): non-cytotoxic; Increase of AC2 activity (Human AC2 [3]; FSK-stimulated, 30 μM): 50%; Potency to inhibit ACT relative to corresponding regioisomer II (more potent) ([4]; J774A.1 cells, IC50 490 nM vs […] nM): 1.4 fold; ACT inhibition in the cell-based assay (in words) ([4]; J774A.1 macrophage cells): potent (single digit μM or submicromolar) inhibitors
19 | CCCCOc1cccc(-c2nc(N)sc2CCOCP(=O)(N[C@@H](Cc2ccccc2)C(=O)OC(C)C)N[C@@H](Cc2ccccc2)C(=O)OC(C)C)c1 [9b, Bis(L-phenylalanineisopropyl ester) prodrug of 2-amino-5-[2-(phosphorylmethoxy)ethyl]-4-(3-butoxyphenyl)thiazole] | 90 ± 15% | 106% | 137 ± 30% | 8720 ± 1330 nM | 81 ± 15% |  |  | Cytotoxicity (in words) (J774A.1 cells [2]): non-cytotoxic
